# Read-outs that look alike come from different tables or passages of the source.
# Key:
# Drosophila OR10a = biological target: T1, Drosophila OR10a (Drosophila melanogaster, UniProt Q9VYZ1); test: Calcium ion fluorescence (GCaMP6) assay, OR10a stable HEK293 cell line; format: cell-based
# T1 construct: expressed in transfected cells
# T1 sequence (Q9VYZ1 1-406): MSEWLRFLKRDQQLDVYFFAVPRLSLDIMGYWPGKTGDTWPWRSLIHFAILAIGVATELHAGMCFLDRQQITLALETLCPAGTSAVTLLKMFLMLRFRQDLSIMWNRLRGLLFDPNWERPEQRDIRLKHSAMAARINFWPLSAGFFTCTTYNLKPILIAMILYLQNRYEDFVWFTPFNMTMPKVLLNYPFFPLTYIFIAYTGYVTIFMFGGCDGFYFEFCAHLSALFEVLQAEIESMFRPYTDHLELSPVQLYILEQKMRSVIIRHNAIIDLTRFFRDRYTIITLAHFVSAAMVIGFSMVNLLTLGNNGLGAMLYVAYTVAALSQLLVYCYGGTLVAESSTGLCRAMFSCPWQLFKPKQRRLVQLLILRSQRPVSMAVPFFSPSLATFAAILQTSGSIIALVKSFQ
# T1 sequence (Q9VNB5 1-486 partner): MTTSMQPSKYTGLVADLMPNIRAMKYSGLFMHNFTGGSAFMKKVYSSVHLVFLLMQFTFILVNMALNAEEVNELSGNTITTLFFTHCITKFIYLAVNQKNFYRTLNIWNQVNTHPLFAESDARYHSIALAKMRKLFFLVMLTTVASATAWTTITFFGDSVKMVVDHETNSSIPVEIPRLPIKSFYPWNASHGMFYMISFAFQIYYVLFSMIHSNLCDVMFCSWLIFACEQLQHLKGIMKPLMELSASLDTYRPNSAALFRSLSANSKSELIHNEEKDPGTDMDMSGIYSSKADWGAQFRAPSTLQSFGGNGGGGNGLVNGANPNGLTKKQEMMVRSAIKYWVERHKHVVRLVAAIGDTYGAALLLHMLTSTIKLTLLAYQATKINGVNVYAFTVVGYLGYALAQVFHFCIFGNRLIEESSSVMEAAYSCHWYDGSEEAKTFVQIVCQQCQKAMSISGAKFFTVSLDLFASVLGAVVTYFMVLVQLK
# Outline: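 HEK293 lines stably expressing each Drosophila OR with GCaMP6, doxycycline-induced (1 μg/mL) 48 or 72 h. Fluorescence recorded 5 s baseline then 30 s after VOC injection at pH 7.3; ΔF=(FMAX−F0)/F0, normalized to 50 µM VUAA1 response per line, triplicate wells averaged; concentration series 0.01–100 μM.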
# Drosophila OR98a = biological target: T2, Drosophila OR98a (Drosophila melanogaster, UniProt Q9VAZ3); test: Calcium ion fluorescence (GCaMP6) assay, OR98a stable HEK293 cell line; format: cell-based
# T2 construct: expressed in transfected cells
# T2 sequence (Q9VAZ3 1-397): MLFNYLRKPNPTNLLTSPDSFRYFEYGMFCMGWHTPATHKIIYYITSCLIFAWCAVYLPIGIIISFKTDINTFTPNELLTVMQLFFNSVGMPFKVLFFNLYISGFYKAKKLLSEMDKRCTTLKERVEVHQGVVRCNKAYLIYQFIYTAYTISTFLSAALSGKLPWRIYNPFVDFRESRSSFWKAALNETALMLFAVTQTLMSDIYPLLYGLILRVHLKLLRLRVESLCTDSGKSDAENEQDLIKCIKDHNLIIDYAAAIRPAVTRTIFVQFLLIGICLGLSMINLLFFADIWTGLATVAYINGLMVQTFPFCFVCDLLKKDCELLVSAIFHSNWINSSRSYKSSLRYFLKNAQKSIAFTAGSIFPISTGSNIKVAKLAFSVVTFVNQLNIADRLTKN
# T2 sequence (Q9VNB5 1-486 partner): T1 sequence (Q9VNB5 1-486 partner)
# Protocol: These VUAA1 normalized ∆F values were used to compare the different receptors and ligands.
# The concentration-dependent effect of the reference ligands on their cognate cell lines was examined in more detail. Twelve different ligand concentrations were measured on each cell line in an overall 0.01 μM to 100 μM concentration range with 5 repetitions with three technical replicates each time.
# Twelve thousand to 18,000 cells were plated into each well of a black wall, transparent bottom 384-well microplate (Greiner) 48 h or 72 h before the measurements and were simultaneously treated with 1 μg/mL doxycycline. […] The plate has 24 columns, thus we could record responses in up to eight different cell lines in each plate. On the day of the experiment, the growth medium was replaced with 20 µL assay buffer/well (140 mM NaCl, 5 mM KCl, 2 mM CaCl2, 1 mM MgCl2, 5 mM HEPES-Na, 20 mM glucose, pH 7.3, 340 mOsm). […] Baseline fluorescence (F0) was recorded for 5 s, after which 7 µL VOC buffer (140 mM NaCl, 5 mM KCl, 2 mM CaCl2, 1 mM MgCl2, 5 mM HEPES-Na, 31 mM glucose, 0.1% DMSO, pH 7.3, 340 mOsm) was injected into each well in one row and the fluorescence response was recorded for an additional 30 s, at a rate of one read/sec. VOC solutions (VOC buffer with 4× concentration of the final measured VOC concentration, 9 µL/well was injected) were measured on the same wells in a second round with the same protocol. Each individual concentration of a specific VOC sample was recorded in three wells for the same cell line on the same microplate. The raw data were exported in xls file format, F0 and FMAX values, and the fluorescence intensity changes (∆F) were calculated in Excel (Microsoft) (Supplementary file Data summary.xlsx) using the following equation: ΔF=FMAX-F0/F0 (see also Fig. 1C). On each plate, we recorded the response of each cell line to 50 µM VUAA1. The average of these ∆F values of each cell line were used to calculate the VUAA1-normalized values for the rest of the plate, by dividing VOC response ∆F values by the average VUAA1 response ∆F value of the corresponding OR cell line. Each VOC-OR combination was measured three times as technical replicates. […] The average of these replicates were used as one ∆F and VUAA1-normalized ∆F in the following analysis.
# In the next rows we tested the reference VOCs (or other VOCs known to activate the corresponding cell lines), in order to test if all cell lines are responsive. The remaining rows were used to test VOCs with unknown effect.
# The recorded FMAX, F0, ∆F, VUAA1-normalized ∆F values, as well as the OR name, the name of the tested sample, and the final concentration for each well were copied into supplementary file Data summary.xlsx, that was used to summarize all the plates recorded. Here, the averages of the measurements were calculated for each receptor-VOC-concentration combination.
# [1] = HEK293, read-out: OR10a Average response (VUAA1-normalized), 1 μM VOC, 50 μM VUAA1 = 1, responses not exceeding 0.05 considered 0
# [2] = HEK293, read-out: OR10a Average response (VUAA1-normalized), 10 μM VOC, 50 μM VUAA1 = 1, responses not exceeding 0.05 considered 0
# [3] = HEK293, read-out: OR10a Average response (VUAA1-normalized), 100 μM VOC, 50 μM VUAA1 = 1, responses not exceeding 0.05 considered 0
# [4] = ligand concentration 1 (unit not given), threshold 0.05, below shown as 0
# [5] = ligand concentration 10 (unit not given), threshold 0.05, below shown as 0
# [6] = ligand concentration 100 (unit not given), threshold 0.05, below shown as 0
# [7] = HEK293, read-out: Average response
# [8] = concentration 1, normalized fluorescence change, values below 0.05 threshold given as 0
# [9] = concentration 10, normalized fluorescence change, values below 0.05 threshold given as 0
# [10] = concentration 100, normalized fluorescence change, values below 0.05 threshold given as 0
# [11] = HEK293, read-out: OR98a response (VUAA1-normalized response)
smiles,measurement,setting,value
C=C1CCC2(C(C)C)CC12 (stereo not drawn) [sabinene],activation at 1 µM,Drosophila OR10a; [1],0%
same,activation at 10 µM,Drosophila OR10a; [2],0%
same,activation at 100 µM,Drosophila OR10a; [3],3.23%
same,OR10a response (VUAA1-normalized) at 1 μM,"Drosophila OR10a; OR10a cell line, VOC concentration 1 μM",0.00
same,OR10a response (VUAA1-normalized) at 10 μM,"Drosophila OR10a; OR10a cell line, VOC concentration 10 μM",0.00
same,OR10a response (VUAA1-normalized) at 100 μM,"Drosophila OR10a; OR10a cell line, VOC concentration 100 μM",0.00
same,DF norm AVERAGE OR10a,Drosophila OR10a; [4],0
same,DF norm AVERAGE OR10a,Drosophila OR10a; [5],0
same,DF norm AVERAGE OR10a,Drosophila OR10a; [6],0
same,activation at 1 µM,Drosophila OR98a; [7],0%
same,activation at 10 µM,Drosophila OR98a; [7],10%
same,activation at 100 µM,Drosophila OR98a; [7],2%
same,OR98a response (VUAA1-normalized) at 1 μM,"Drosophila OR98a; OR98a cell line, VOC concentration 1 μM",0.00
same,OR98a response (VUAA1-normalized) at 10 μM,"Drosophila OR98a; OR98a cell line, VOC concentration 10 μM",0.10
same,OR98a response (VUAA1-normalized) at 100 μM,"Drosophila OR98a; OR98a cell line, VOC concentration 100 μM",0.00
same,DF norm AVERAGE OR98a,Drosophila OR98a; [4],0
same,DF norm AVERAGE OR98a,Drosophila OR98a; [5],0.1017
same,DF norm AVERAGE OR98a,Drosophila OR98a; [6],0
CCCCC(C)=O [2-hexanone],activation at 1 µM,Drosophila OR10a; [1],10%
same,activation at 10 µM,Drosophila OR10a; [2],0%
same,activation at 100 µM,Drosophila OR10a; [3],0%
same,activation at 1 µM,"Drosophila OR10a; HEK293, read-out: OR10a response (VUAA1-normalized response), VOC concentration 1 μM",10%
same,activation at 10 µM,"Drosophila OR10a; HEK293, read-out: OR10a response (VUAA1-normalized response), VOC concentration 10 μM",0%
same,activation at 100 µM,"Drosophila OR10a; HEK293, read-out: OR10a response (VUAA1-normalized response), VOC concentration 100 μM",0%
same,DF norm AVERAGE OR10a,Drosophila OR10a; [8],0.09901
same,DF norm AVERAGE OR10a,Drosophila OR10a; [9],0
same,DF norm AVERAGE OR10a,Drosophila OR10a; [10],0
same,activation at 1 µM,Drosophila OR98a; [7],3%
same,activation at 10 µM,Drosophila OR98a; [7],4.36%
same,activation at 100 µM,Drosophila OR98a; [7],3.5%
same,activation at 1 µM,Drosophila OR98a; [11],0%
same,activation at 10 µM,Drosophila OR98a; [11],0%
same,activation at 100 µM,Drosophila OR98a; [11],0%
same,DF norm AVERAGE OR98a,Drosophila OR98a; [8],0
same,DF norm AVERAGE OR98a,Drosophila OR98a; [9],0
same,DF norm AVERAGE OR98a,Drosophila OR98a; [10],0
